Measured values published in the METLIN SMRT retention time set (Domingo-Almenara et al. 2019).

Test: gradient 5% acetonitrile 3 min, to 50% in 2 min, to 85% in 15 min, held 3 min, 100 µL/min
Conditions: column: Zorbax Extend-C18 2.1 x 50 mm; eluents: water / acetonitrile, 0.1% formic acid
Outline: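 Values are retention times taken from adduct peaks that software picked and an analyst inspected. The pure standards were run as mixtures of ~100 molecules on HPLC linked to a quadrupole time-of-flight mass spectrometer, in positive and negative ionization mode. A Zorbax Extend-C18 column (2.1 × 50 mm, 1.8 μm) was used at 100 μL/min with water and acetonitrile, each including 0.1% formic acid.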

SMILES	RP-LC retention time [s]
Cc1ccc(-c2nnc(-c3nn(C)c4c3CN(S(=O)(=O)c3ccc5c(c3)OCCO5)CC4)o2)cc1	975
Cc1ccc(CN2CCN(C3CCN(S(=O)(=O)c4cccc(C)c4)CC3)C(=O)C2=O)cc1	873
Cc1ccc(-n2nc(N3CCN(C(=O)Nc4ccc(Cl)cc4)CC3)ccc2=O)cc1	894
COc1ccc(Cl)cc1-n1c(SCC(=O)N2CCC(C(N)=O)CC2)nc2ccccc2c1=O	717
COc1cc(NC(=O)Cn2nc3nc(N4CCCC4)ccn3c2=O)cc(OC)c1	643
CN(C)S(=O)(=O)N1CCCC(c2nc(-c3cccnc3)no2)CCNC(=O)CC1 (centres undefined)	641
CC(=O)N1CCN(c2ncc(C(=O)Nc3ccccc3)c(N)n2)CC1	607
CCCOC1CCN(C(=O)NC)CC1	630
Cn1c(C2CCN(C(=O)Nc3cccc(Cl)c3)CC2)cc(=O)n2nccc12	693
C[C@H]1C/C=C/[C@H]2[C@@H]3O[C@]3(C)[C@@H](C)[C@H]3[C@H](Cc4ccccc4)NC(=O)[C@]32OC(=O)O/C=C/[C@](C)(O)C1=O	870
COC1CCOC2(CCN(C(=O)c3ccco3)CC2)C1 (centres undefined)	645
Cn1ncc2c3ccccc3n(CCCC(=O)N3CCN(c4ccccn4)CC3)c2c1=O	607
O=C(Nc1ccccc1)N1CCC(n2cnc3cc(Cl)ccc3c2=O)CC1	784
CC1CCc2c(sc3ncnc(SCC(=O)N4CCOCC4)c23)C1 (centres undefined)	860
Cc1cnn(CCC(=O)N2CCCn3ccnc3C2C2CCCC2)c1 (centres undefined)	611
CC(NC(=O)C1CCN(C(=O)c2ncn3c2COC(c2ccccc2)C3)CC1)c1ccc(F)cc1 (centres undefined)	848
Brc1ccc(-c2ccc(CNCc3ccc4c(c3)OCO4)o2)cc1	776
Cc1nc(C2CCCN2Cc2ccc(F)cc2F)n[nH]1 (centres undefined)	560
O=C(NCc1ccc(C(F)(F)F)cc1)C1=C2CCCN2c2ccccc2S1(=O)=O	922
O=C(Cn1c(=O)c2cccn2c2ccc(F)cc21)N1CCCCC1	795

SMILES	RP-LC retention time [s]
COc1ccc(F)cc1S(=O)(=O)N1C[C@@H](F)C[C@H]1C(=O)N1CCc2ccccc2C1	881
Cn1nc(N2CCC(NC(=O)Cc3ccncc3)C2)ccc1=O (centres undefined)	549
Cc1c(N2C(=O)c3cccc4cccc(c34)C2=O)c(=O)n(-c2ccccc2)n1C	644
CC(C)CCNC(=O)c1cn(C)nc1S(=O)(=O)N1CCSCC1	900
NC(=O)C1CCCN(c2cccc3c2C(=O)c2ccccc2C3=O)C1 (centres undefined)	652
CCn1nc(C)c(-c2cc(C(=O)N3CCCCCCNC(=O)[C@@H]4CCCC[C@@H]43)no2)c1C	834
O=C(NCc1ccc(F)cc1F)C1CC(=O)N(c2ccc3c(c2)CCN3C(=O)C2CC2)C1 (centres undefined)	750
CN1C(=O)CCCCC1C(=O)N1CCOCC1 (centres undefined)	556
COc1ccc(NC(=O)C(C)C2CCN(C(=O)Nc3ccc(F)cc3)CC2)cc1 (centres undefined)	799
CCOC(=O)C1=C(C)NC2=C(C(=O)c3ccccc32)C1c1ccccc1OC (centres undefined)	950
Cn1nnc2c(N3CCN(S(=O)(=O)c4cccs4)CC3)ncnc21	726
Nc1nc(CN2CCN(c3ccccn3)CC2)nc(N2CCCCC2)n1	561
O=C(NCC(O)c1ccc(C(F)(F)F)cc1)C1(c2ccccc2)CCOCC1 (centres undefined)	785
CCC(=O)N1CCc2cc(N3CC(C(=O)N4CCC5(CC4)OCCO5)CC3=O)ccc21 (centres undefined)	654
CCN1CCN(CCCNC(=O)C2CCCN(C(=O)c3cc4sccc4n3CC)C2)CC1 (centres undefined)	566
COC(=O)[C@H](Cc1c[nH]c2ccccc12)NC(=O)c1ccc2c(c1)C(=O)N(C1CC1)C2=O	830
COc1ccc(NC(=O)c2ccc(N3C(=O)CCC3=O)cc2)c([N+](=O)[O-])c1	716
CCCS(=O)(=O)N1CC(=O)N(c2ccc(Cl)cc2C)C(C)(C(=O)NC2CCCCC2)C1 (centres undefined)	1040
CCCOc1cc(N2CCN(C(=O)CC(C)C)CC2)nc(C)n1	597

Results, then the compound that gave them:

RP-LC retention time [s]	SMILES
1040	COc1ccc(-c2csc(C)n2)cc1S(=O)(=O)N(C)c1ccc(C)cc1
1280	Cc1ccc(-c2noc(C3CCCN3S(=O)(=O)c3ccc4c(c3)CCC4)n2)cc1 (centres undefined)
1060	Cc1c(-c2noc(-c3ccc(F)cc3)n2)nnn1-c1ccc(F)cc1
844	Cc1noc(-c2cccc(OC3CN(C(=O)Nc4ccccc4)C3)c2)n1
679	Cc1c(C(=O)Nc2ccccc2)sc2nc[nH]c(=O)c12
586	Cc1ccc(-c2[nH]ncc2CN)cc1C
982	Cc1nc2c(c(SCC(=O)Nc3nc(-c4ccccc4)cs3)n1)CCC2
569	CN1CCc2[nH]cnc2C12CCN(C(=O)Nc1ccccc1C(F)(F)F)C2 (centres undefined)
847	COc1ccccc1CNC(=O)c1cn(C)nc1S(=O)(=O)N1CCSCC1
836	CCOC(=O)c1cn(CC(=O)N2CCOc3ccc(C)cc32)c2nc(C)ccc2c1=O
892	CCc1ccccc1NC(=O)Cn1c(=O)n(-c2ccc(C)cc2)c(=O)c2c1cc(C)n2C
811	Clc1cccc2sc(NCC3CCCO3)nc12 (centres undefined)
633	COCCCNC(=O)C1CCCN(c2nnc(C)c3c(C)n(-c4ccc(OC)cc4)nc23)C1 (centres undefined)
862	CC(C)c1cc(C2CCCN2C(=O)c2cccs2)no1 (centres undefined)
675	COCCCNC(=O)C1CCN(c2ccc(Sc3cccc(F)c3)nn2)CC1
1080	CSc1cccc(NC(=O)Cn2nc(-n3cccc3)c3c(C)cc(C)nc32)c1
828	Cc1nc2c(ccc3nc(NC(=O)c4cc(=O)c5ccccc5o4)sc32)s1
844	Cc1cccc(-n2c(=O)c3c(cc(C)n3C)n(CC(=O)Nc3cc(C)ccc3C)c2=O)c1
659	O=C(Cn1c(N2CCCCC2)nc2ccccc2c1=O)NCc1cccc(Cl)c1
1010	Cc1ccc(-c2noc(-c3nn(-c4ccc(C)cc4)ccc3=O)n2)cc1
658	COc1cc(C(=O)Nc2cccc(-c3cn4ccsc4n3)c2)c([N+](=O)[O-])cc1OC
923	CCCn1cc(S(=O)(=O)Nc2ccc(F)c(C)c2)c2cccnc21
861	CCNC(=O)C1CCN(c2nc3ccc(-c4ccc(F)cc4)nc3s2)CC1
736	Cc1cc(NC(=O)Nc2ccc3c(ccn3C)c2)sn1
910	CC(=O)c1cccc(NC(=O)Cn2c(=O)n(-c3ccc(F)cc3)c(=O)c3c2cc(C)n3C)c1

RP-LC retention time [s]	SMILES
581	CSc1cccc(Nc2c(C(=O)N3CCSCC3)cnc3nc(C)ccc23)c1
632	O=C(NCC1CCN(c2ncccn2)CC1)Nc1ccc2c(c1)OCO2
1170	CCOc1cccc(CNC(=O)c2ccc3c(=O)n(Cc4ccccc4)c(N(CC)CC)nc3c2)c1
598	COc1cccc(CNC(=O)Cn2ncc3c(N4CCN(c5ccccn5)CC4)ncnc32)c1
590	CCCCC(=O)Nc1ccc2nc(N3CCN(CCC)CC3)cc(C(=O)O)c2c1
876	CCOc1ccc(C(=O)NCc2noc(-c3ccc(OC)cc3)n2)cc1
625	COc1ccc(CCNC(=O)N2CC3CC2C(=O)O3)cc1 (centres undefined)
1040	Cc1ccccc1N1CCN(c2ncc(C(=O)O)c(C)n2)CC1
659	COc1ccccc1C(CNC(=O)c1cc(=O)c2cc(C)cc(C)c2o1)N(C)C (centres undefined)
727	Cc1ccc(NC(=O)C2C(=O)N(CCO)C3(C)CC2c2ccccc2O3)cc1 (centres undefined)
643	O=C(Nc1nccs1)C1CCN(Cc2noc(-c3ccc(F)cc3)n2)CC1
678	CCc1nc(-c2ccnc(N3CCOCC3)c2)no1
595	CCN1CCN(c2cc(C)c3cc(NC(=O)CC4CCCC4)ccc3n2)CC1
987	COc1cccc(C(=O)NC2(C(F)(F)F)C(=O)N(C3CCCCC3)C(C)=C2C(C)=O)c1 (centres undefined)
785	O=C(Nc1nc2c(s1)CN(C(=O)c1cc(-c3ccccc3)on1)CC2)C1CCCO1 (centres undefined)
936	COc1cccc(-c2noc(C3CC(=O)N(c4cccc(Cl)c4)C3)n2)c1OC (centres undefined)
826	Cc1cccc(-c2nc(CNC(=O)C(C)(C)C)no2)c1
791	COc1ccc(-c2cn3c(CC(=O)Nc4cccc(Cl)c4)csc3n2)cc1OC
652	CCCn1cnc2ccc(-c3noc(CNC(=O)c4cccs4)n3)cc21
680	Cc1ccc(CNC(=O)NCC2Cn3cccc3C(=O)N2C)cc1 (centres undefined)
635	CC(C)C(=O)Nc1ccc(CCc2nc3ccc(C(=O)NCc4ccco4)cc3[nH]2)cc1
539	CCC(=O)NCc1nc2c(n1C)CN(S(=O)(=O)Cc1ccc(Cl)cc1)CC2
941	Cc1nc(N2CCN(C(=O)c3ccccc3)CC2)c(C#N)c2c1COC(C)(C)C2
750	COc1ccc2oc(-c3noc(CNC(C)=O)n3)c(C)c2c1
1050	Cc1cc(C)c(S(=O)(=O)N2CCC(C(=O)NCc3csc(-c4ccccc4)n3)CC2)c(C)c1
